Results on 30 compounds are retold here after patent US20260315452A1, “PROTEASE INHIBITORS AND USES THEREOF” (priority 2023, published 2026).

This assay deals with SARS-CoV-2 3CLpro (Severe acute respiratory syndrome coronavirus 2, UniProt P0DTD1). Description: biochemical. The conditions noted are these: inhibition of SARS-CoV-2 3CLpro; 15 nM 3CLpro, 25 μM fluorogenic substrate, 37° C.; read-out: Inhibitory Activity (IC50).
In the case of `CNC(=O)c1cc(Br)cc([N+](=O)[O-])c1N[C@@H]1CCCC[C@@H]1NC(=O)c1cncnc1` [Compound 2, N-((1S, 2R)-2-((4-bromo-2-(methylcarbamoyl)-6-nitrophenyl)amino)cyclohexyl) pyrimidine-5-carboxamide], the IC50 is at least 10 µM. As for `CNC(=O)c1cc(Cl)cc([N+](=O)[O-])c1N[C@H]1CN(C(=O)c2cncc3cnn(C)c23)CCC1(F)F` [Compound 106, (S)-5-chloro-2-((4,4-difluoro-1-(1-methyl-1H-pyrazolo[4,3-c]pyridine-7-carbonyl)piperidin-3-yl)amino)-N-methyl-3-nitrobenzamide], the IC50 was below 0.1 µM. Consider `O=C(O)c1cc(Br)cc([N+](=O)[O-])c1N[C@H]1CN(C(=O)c2cncc3ccccc23)CCC1(F)F` [Compound 153, (S)-5-bromo-2-((4,4-difluoro-1-(isoquinoline-4-carbonyl)piperidin-3-yl)amino)-3-nitrobenzoic acid], for which the IC50 was in the range of 0.1 to 1 µM. Take `O=C(NC1CC(F)(F)C1)c1cc(Br)cc([N+](=O)[O-])c1N[C@H]1CN(C(=O)c2cncc3ccccc23)CC(F)(F)C1` [Compound 134, (R)-5-bromo-2-((5,5-difluoro-1-(isoquinoline-4-carbonyl)piperidin-3-yl)amino)-N-(3,3-difluorocyclobutyl)-3-nitrobenzamide]: the IC50 was 0.1 to 1 µM. Turning to `CNC(=O)c1cc(Br)cc([N+](=O)[O-])c1N[C@H]1CN(C(=O)c2cncc3cccnc23)CC[C@@H]1F` [Compound 108, 5-bromo-2-(((3S, 4S)-4-fluoro-1-(1,6-naphthyridine-8-carbonyl)piperidin-3-yl)amino)-N-methyl-3-nitrobenzamide], the IC50 was below 0.1 µM. With `CNC(=O)c1cc(Br)cc([N+](=O)[O-])c1N[C@H]1CN(C(=O)c2cncc3ccccc23)CC[C@@H]1F` [Compound 87, 5-bromo-2-(((3S, 4S)-4-fluoro-1-(isoquinoline-4-carbonyl)piperidin-3-yl)amino)-N-methyl-3-nitrobenzamide], the IC50 is below 0.1 µM.

For `CNC(=O)c1cc(Br)cc([N+](=O)[O-])c1NC1(C2CN(C(=O)c3cncc4ccccc34)C2)CC1` [Compound 63, 5-bromo-2-((1-(1-(isoquinoline-4-carbonyl)azetidin-3-yl)cyclopropyl)amino)-N-methyl-3-nitrobenzamide], the IC50 is 1 to 10 µM. In the case of `CNC(=O)c1cc(Br)cc([N+](=O)[O-])c1N[C@H]1CN(C(=O)c2cncc3ccccc23)C[C@@H]1C` [Compound 50, 5-bromo-2-[[(3R, 4S)-1-(isoquinoline-4-carbonyl)-4-methyl-pyrrolidin-3-yl]amino]-N-methyl-3-nitro-benzamide] it was below 0.1 µM; in that of `CNC(=O)c1cc(Br)cc(S(C)(=O)=O)c1N[C@@H]1CCCC[C@@H]1NC(=O)c1cncc2ccccc12` [Compound 57, N-((1S,2R)-2-((4-bromo-2-(methylcarbamoyl)-6-(methylsulfonyl)phenyl)amino)cyclohexyl) isoquinoline-4-carboxamide], at least 10 µM; in that of `O=C(c1cc(Br)cc([N+](=O)[O-])c1N[C@H]1CN(C(=O)c2cncc3ccccc23)CC1(F)F)N1CC(F)(F)C1` [Compound 162, (S)-(5-bromo-2-((4,4-difluoro-1-(isoquinoline-4-carbonyl)pyrrolidin-3-yl)amino)-3-nitrophenyl)(3,3-difluoroazetidin-1-yl)methanone], below 0.1 µM. In the case of `CNC(=O)c1cc(Cl)cc([N+](=O)[O-])c1N[C@H]1CN(C(=O)c2cncc3ncn(C)c23)CCC1(F)F` [Compound 105, (S)-5-chloro-2-((4,4-difluoro-1-(1-methyl-1H-imidazo[4,5-c]pyridine-7-carbonyl)piperidin-3-yl)amino)-N-methyl-3-nitrobenzamide] it was below 0.1 µM. In the case of `COc1cncc(C(=O)N2CCC3(CCN(c4c(C(=O)NC5CC(F)(F)C5)cc(Br)cc4[N+](=O)[O-])C3)C2)c1` (stereo not drawn) [Compound 23, 5-bromo-N-(3,3-difluorocyclobutyl)-2-(7-(5-methoxynicotinoyl)-2,7-diazaspiro[4.4]nonan-2-yl)-3-nitrobenzamide] it was 1 to 10 µM; in that of `CNC(=O)c1cc(Br)cc([N+](=O)[O-])c1N[C@@H]1CCCCN(C(=O)c2cnc3ccccc3c2)C1` [Compound 20, (R)-5-bromo-N-methyl-3-nitro-2-((1-(quinoline-3-carbonyl)azepan-3-yl)amino)benzamide], 0.1 to 1 µM. Regarding `CNC(=O)c1cc(Br)cc([N+](=O)[O-])c1N[C@@H]1CN(C(C)=O)CC[C@@H]1NC(=O)c1cncc2ccccc12` [Compound 90, N-((3R, 4S)-1-acetyl-3-((4-bromo-2-(methylcarbamoyl)-6-nitrophenyl)amino)piperidin-4-yl)isoquinoline-4-carboxamide], the concentration for half-maximal inhibition (IC50) was in the range of 1 to 10 µM.

Regarding `NNC(=O)c1cc(Br)cc([N+](=O)[O-])c1N[C@@H]1CCCC[C@@H]1NC(=O)c1cncc2ccccc12` [Compound 54, N-((1S,2R)-2-((4-bromo-2-(hydrazinecarbonyl)-6-nitrophenyl)amino)cyclohexyl)isoquinoline-4-carboxamide], the 50% inhibitory concentration (IC50) lay within 1 to 10 µM. With `CNC(=O)c1cc(Br)cc([N+](=O)[O-])c1N[C@H]1CN(C(=O)c2cccnc2C#N)CCC1(F)F` [Compound 114, (S)-5-bromo-2-((1-(2-cyanonicotinoyl)-4,4-difluoropiperidin-3-yl)amino)-N-methyl-3-nitrobenzamide], the IC50 is 1 to 10 µM.

As for `CNC(=O)c1cc(Cl)cc([N+](=O)[O-])c1N[C@H]1CN(C(=O)c2cncc(Cl)c2C)CCC1(F)F` [Compound 169, (S)-5-chloro-2-((1-(5-chloro-4-methylnicotinoyl)-4,4-difluoropiperidin-3-yl)amino)-N-methyl-3-nitrobenzamide], the IC50 is below 0.1 µM. To `CNC(=O)c1cc(Br)cc([N+](=O)[O-])c1N1CCC2(CN(C(=O)c3cncc4ccccc34)C2)C1` [Compound 10, 5-bromo-2-(2-(isoquinoline-4-carbonyl)-2,6-diazaspiro[3, 4]octan-6-yl)-N-methyl-3-nitrobenzamide] belongs at least 10 µM. In the case of `CNC(=O)c1cc(Br)cc([N+](=O)[O-])c1N[C@H]1CN(C(=O)C2CC(=O)NC(=O)C2)CCC1(F)F` [Compound 100, (S)-5-bromo-2-((1-(2,6-dioxopiperidine-4-carbonyl)-4,4-difluoropiperidin-3-yl)amino)-N-methyl-3-nitrobenzamide] it was 0.1 to 1 µM; in that of `CNC(=O)c1cc(Br)cc([N+](=O)[O-])c1N[C@@H]1CCCC[C@@H]1NC(=O)c1cncc(OC)c1` [Compound 4, N-((1S, 2R)-2-((4-bromo-2-(methylcarbamoyl)-6-nitrophenyl)amino)cyclohexyl)-5-methoxynicotinamide], 1 to 10 µM; in that of `O=C(N[C@H]1CCOC1)c1cc(Cl)cc(C(F)(F)F)c1N[C@H]1CN(C(=O)c2cncc3ccccc23)CCC1(F)F` [Compound 165, 5-chloro-2-(((S)-4,4-difluoro-1-(isoquinoline-4-carbonyl)piperidin-3-yl)amino)-N-((S)-tetrahydrofuran-3-yl)-3-(trifluoromethyl)benzamide], below 0.1 µM. Turning to `CNC(=O)c1cc(Br)cc([N+](=O)[O-])c1N1CCc2[nH]nc(-c3cncc4ccccc34)c2C1` [Compound 69, 5-bromo-2-(3-(isoquinolin-4-yl)-1,4,6,7-tetrahydro-5H-pyrazolo[4,3-c]pyridin-5-yl)-N-methyl-3-nitrobenzamide], the IC50 is 1 to 10 µM.

On to `CNC(=O)c1cc(Cl)cc([N+](=O)[O-])c1N[C@H]1CN(C(=O)c2cncc3ccncc23)CC[C@@H]1F` [Compound 171, 5-chloro-2-(((3S, 4S)-4-fluoro-1-(2,6-naphthyridine-4 - carbonyl)piperidin-3-yl)amino)-N-methyl-3-nitrobenzamide], for which the IC50 is below 0.1 µM. For `CNC(=O)c1cc(Br)cc([N+](=O)[O-])c1N1CC[C@H](CNC(=O)c2cncc3ccccc23)C1` [Compound 25, (R)-N-((1-(4-bromo-2-(methylcarbamoyl)-6-nitrophenyl)pyrrolidin-3-yl)methyl)isoquinoline-4-carboxamide], the IC50 lay in the range of 0.1 to 1 µM. As to `CNC(=O)c1cc(Br)cc(C(F)(F)F)c1N[C@H]1CN(C(=O)c2cncc3ccccc23)CC[C@@H]1F` [Compound 183, 5-bromo-2-(((3S, 4S)-4-fluoro-1-(isoquinoline-4-carbonyl)piperidin-3-yl)amino)-N-methyl-3-(trifluoromethyl)benzamide], the IC50 is below 0.1 µM. For `CNC(=O)c1cc(Br)cc([N+](=O)[O-])c1N[C@H]1CN(Cc2cncc3ccccc23)CCC1(F)F` [Compound 32, (S)-5-bromo-2-((4,4-difluoro-1-(isoquinolin-4-ylmethyl)piperidin-3-yl)amino)-N-methyl-3-nitrobenzamide], the IC50 fell in the range of 0.1 to 1 µM.

On to `O=C(NC1CC(F)(F)C1)c1cc(Br)cc([N+](=O)[O-])c1N1CCC2(CCN(C(=O)c3cncc(C(F)(F)F)c3)C2)C1` (stereo not drawn) [Compound 22, 5-bromo-N-(3,3-difluorocyclobutyl)-3-nitro-2-(7-(5-(trifluoromethyl)nicotinoyl)-2,7-diazaspiro[4.4]nonan-2-yl)benzamide], for which the half-inhibitory concentration (IC50) lay in the range of 1 to 10 µM. As for `NC(=O)c1cc(Br)cc([N+](=O)[O-])c1N[C@H]1CN(C(=O)c2cncc3ccccc23)CCC1(F)F` [Compound 49, (S)-5-bromo-2-((4,4-difluoro-1-(isoquinoline-4-carbonyl)piperidin-3-yl)amino)-3-nitrobenzamide], the half-maximal inhibitory concentration (IC50) was below 0.1 µM. In the case of `CN(C)C(=O)c1cc(Br)cc([N+](=O)[O-])c1N[C@H]1CN(C(=O)c2cncc3ccccc23)CC1(F)F` [Compound 161, (S)-5-bromo-2-((4,4-difluoro-1-(isoquinoline-4-carbonyl)pyrrolidin-3-yl)amino)-N, N-dimethyl-3-nitrobenzamide] it was below 0.1 µM; in that of `CNC(=O)c1cc(Br)cc(C(F)(F)F)c1N[C@H]1CN(C(=O)c2cncc3ccccc23)CC[C@H]1F` [Compound 181, 5-bromo-2-(((3S,4R)-4-fluoro-1-(isoquinoline-4-carbonyl)piperidin-3-yl)amino)-N-methyl-3-(trifluoromethyl)benzamide], below 0.1 µM.

For orientation: IC50 means the concentration that gives 50% inhibition.
